Test results from patent publication US7074789B2, “Kinase inhibitors” (Amgen Inc., priority 1999, dated 2006).
Like-named read-outs stand apart in the source and are kept apart here.

Assays:
Format in all cases: biochemical
Lck = target: T1, Lck (Homo sapiens, UniProt P06239); experiment: Kinase inhibition assay (33P transfer), Lck; conditions: read-out: Lck-1
T1 construct: Kinases are expressed as either kinase domains or full length constructs; made in house
Description: (§1) The inhibitor compounds described herein are screened in the following manner. Kinases suitable for use in the following protocol to determine kinase activity of the compounds described herein include, -but are not limited to: Lck, Lyn, Src, Fyn, Syk, Zap-70, Itk, Tec, Btk, EGFR, ErbB2, Kdr, Flt-1, Flt-3, Tek, c-Met, InsR, and AKT.
(§2) Kinases are expressed as either kinase domains or full length constructs fused to glutathione S-transferase (GST) or polyHistidine tagged fusion proteins in either E. colior Baculovirus-High Five expression systems. […] In some instances, kinases are co-expressed or mixed with purified or partially purified regulatory polypeptides prior to measurement of activity.
(§3) Briefly, The transfer of ^33PO4 from ATP to the synthetic substrates poly(Glu, Tyr) 4:1 or poly(Arg, Ser) 3:1 attached to the bioactive surface of microtiter plates serves as the basis to evaluate enzyme activity. After an incubation period, the amount of phosphate transferred is measured by first washing the plate with 0.5% phosphoric acid, adding liquid scintillant, and then counting in a liquid scintillation detector.

Zap-70 = target: T2, Zap-70 (Homo sapiens, UniProt P43403); experiment: Kinase inhibition assay (33P transfer), Zap-70; conditions: read-out: Zap-1
T2 construct: Kinases are expressed as either kinase domains or full length constructs; made in house
T2 sequence (P43403 1-619): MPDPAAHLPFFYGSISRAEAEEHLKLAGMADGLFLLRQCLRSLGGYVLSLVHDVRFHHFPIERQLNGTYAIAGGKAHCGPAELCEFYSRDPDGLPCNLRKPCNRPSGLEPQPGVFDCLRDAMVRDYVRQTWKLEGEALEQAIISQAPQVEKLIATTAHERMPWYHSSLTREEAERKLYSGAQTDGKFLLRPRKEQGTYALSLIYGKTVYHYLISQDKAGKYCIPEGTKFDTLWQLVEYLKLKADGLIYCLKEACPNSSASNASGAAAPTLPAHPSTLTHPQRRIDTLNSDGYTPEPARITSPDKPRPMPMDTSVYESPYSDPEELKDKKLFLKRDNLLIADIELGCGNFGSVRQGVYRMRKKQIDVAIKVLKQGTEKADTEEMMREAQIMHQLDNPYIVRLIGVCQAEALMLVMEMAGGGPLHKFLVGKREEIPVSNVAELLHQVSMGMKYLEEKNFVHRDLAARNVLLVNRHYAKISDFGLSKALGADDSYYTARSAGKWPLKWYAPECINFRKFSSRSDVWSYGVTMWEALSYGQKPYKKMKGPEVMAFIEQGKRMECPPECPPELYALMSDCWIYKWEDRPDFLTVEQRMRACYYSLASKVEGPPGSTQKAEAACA
Description: as §1, §2, §3

Itk = target: T3, Itk (Homo sapiens, UniProt Q08881); experiment: Kinase inhibition assay (33P transfer), Itk; conditions: read-out: Itk-1
T3 construct: Kinases are expressed as either kinase domains or full length constructs; made in house
T3 sequence (Q08881 1-620): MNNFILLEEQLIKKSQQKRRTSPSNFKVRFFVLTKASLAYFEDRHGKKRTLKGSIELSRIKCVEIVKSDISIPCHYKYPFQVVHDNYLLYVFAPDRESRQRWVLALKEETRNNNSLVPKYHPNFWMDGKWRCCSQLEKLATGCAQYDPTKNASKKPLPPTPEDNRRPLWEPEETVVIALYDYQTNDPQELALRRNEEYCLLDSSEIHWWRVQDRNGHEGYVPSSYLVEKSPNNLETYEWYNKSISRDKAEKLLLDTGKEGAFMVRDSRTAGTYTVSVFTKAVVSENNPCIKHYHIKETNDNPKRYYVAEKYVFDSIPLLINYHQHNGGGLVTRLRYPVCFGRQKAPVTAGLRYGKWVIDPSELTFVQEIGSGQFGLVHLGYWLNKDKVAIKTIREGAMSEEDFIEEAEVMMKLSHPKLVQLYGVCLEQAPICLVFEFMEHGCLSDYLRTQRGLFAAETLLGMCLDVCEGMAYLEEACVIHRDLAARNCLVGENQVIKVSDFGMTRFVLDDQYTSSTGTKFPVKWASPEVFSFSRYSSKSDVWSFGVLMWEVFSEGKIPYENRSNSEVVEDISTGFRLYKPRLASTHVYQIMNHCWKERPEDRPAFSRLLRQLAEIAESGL
Description: as §1
(§4) Kinases are expressed as either kinase domains or full length constructs fused to glutathione S-transferase (GST) or polyHistidine tagged fusion proteins in either E. colior Baculovirus-High Five expression systems. They are purified to near homogeneity by affinity chromatography essentially as previously described (Lehr et al., 1996; Gish et al., 1995). In some instances, kinases are co-expressed or mixed with purified or partially purified regulatory polypeptides prior to measurement of activity.
as §3, with “Kinase activity and inhibition are measured essentially by established protocols (Braunwalder et al., 1996). Briefly,” for “Briefly,”, “detector. The IC50 is determined by the concentration of compound that causes a 50% reduction in the amount of […] incorporated onto the substrate bound to the plate.” for “detector.”

EGFR = target: T4, EGFR (Homo sapiens, UniProt P00533); experiment: Kinase inhibition assay (33P transfer), EGFR; conditions: Table 2, kinase inhibition class; read-out: EGFR-1
T4 construct: Kinases are expressed as either kinase domains or full length constructs; made in house
Description: as §1, §4
as §3, with “Kinase activity and inhibition are measured essentially by established protocols (Braunwalder et al., 1996). Briefly,” for “Briefly,”, “detector. The IC50 is determined by the concentration of compound that causes a 50% reduction in the amount of […] incorporated onto the substrate bound to the plate.” for “detector.”

Kdr = target: T5, Kdr (Homo sapiens, UniProt P35968); experiment: Kinase inhibition assay (33P transfer), Kdr; conditions: read-out: KDR-1
T5 construct: Kinases are expressed as either kinase domains or full length constructs; made in house
Description: as §1, §2, §3

c-Met = target: T6, c-Met (Homo sapiens, UniProt P08581); experiment: Kinase inhibition assay (33P transfer), c-Met; conditions: Table 2, kinase inhibition class; read-out: Met-1
T6 construct: Kinases are expressed as either kinase domains or full length constructs; made in house
Description: as §1, §4
as §3, with “Kinase activity and inhibition are measured essentially by established protocols (Braunwalder et al., 1996). Briefly,” for “Briefly,”, “detector. The IC50 is determined by the concentration of compound that causes a 50% reduction in the amount of […] incorporated onto the substrate bound to the plate.” for “detector.”

AKT = target: T7, AKT (Homo sapiens, UniProt Q9Y243); experiment: Kinase inhibition assay (33P transfer), AKT; conditions: Table 2, kinase inhibition class; read-out: AKT3-1
T7 construct: Kinases are expressed as either kinase domains or full length constructs; made in house
Description: as §1, §2, §3

T1 sequence (P06239 whole entry, species assumed, the tested form may be a part): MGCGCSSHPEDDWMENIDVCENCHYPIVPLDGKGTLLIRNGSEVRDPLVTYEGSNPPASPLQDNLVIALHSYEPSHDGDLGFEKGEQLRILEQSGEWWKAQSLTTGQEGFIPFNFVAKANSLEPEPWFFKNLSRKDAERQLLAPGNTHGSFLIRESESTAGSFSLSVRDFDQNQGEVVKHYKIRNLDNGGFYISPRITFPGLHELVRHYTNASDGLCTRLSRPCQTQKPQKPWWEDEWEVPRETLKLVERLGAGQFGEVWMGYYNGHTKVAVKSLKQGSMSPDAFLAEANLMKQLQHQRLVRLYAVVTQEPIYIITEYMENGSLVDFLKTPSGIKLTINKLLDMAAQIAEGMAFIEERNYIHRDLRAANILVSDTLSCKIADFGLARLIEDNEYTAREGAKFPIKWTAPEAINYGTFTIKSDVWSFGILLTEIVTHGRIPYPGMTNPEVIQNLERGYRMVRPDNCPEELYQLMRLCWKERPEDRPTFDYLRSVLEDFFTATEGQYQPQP
T4 sequence (P00533 25-1210, species assumed): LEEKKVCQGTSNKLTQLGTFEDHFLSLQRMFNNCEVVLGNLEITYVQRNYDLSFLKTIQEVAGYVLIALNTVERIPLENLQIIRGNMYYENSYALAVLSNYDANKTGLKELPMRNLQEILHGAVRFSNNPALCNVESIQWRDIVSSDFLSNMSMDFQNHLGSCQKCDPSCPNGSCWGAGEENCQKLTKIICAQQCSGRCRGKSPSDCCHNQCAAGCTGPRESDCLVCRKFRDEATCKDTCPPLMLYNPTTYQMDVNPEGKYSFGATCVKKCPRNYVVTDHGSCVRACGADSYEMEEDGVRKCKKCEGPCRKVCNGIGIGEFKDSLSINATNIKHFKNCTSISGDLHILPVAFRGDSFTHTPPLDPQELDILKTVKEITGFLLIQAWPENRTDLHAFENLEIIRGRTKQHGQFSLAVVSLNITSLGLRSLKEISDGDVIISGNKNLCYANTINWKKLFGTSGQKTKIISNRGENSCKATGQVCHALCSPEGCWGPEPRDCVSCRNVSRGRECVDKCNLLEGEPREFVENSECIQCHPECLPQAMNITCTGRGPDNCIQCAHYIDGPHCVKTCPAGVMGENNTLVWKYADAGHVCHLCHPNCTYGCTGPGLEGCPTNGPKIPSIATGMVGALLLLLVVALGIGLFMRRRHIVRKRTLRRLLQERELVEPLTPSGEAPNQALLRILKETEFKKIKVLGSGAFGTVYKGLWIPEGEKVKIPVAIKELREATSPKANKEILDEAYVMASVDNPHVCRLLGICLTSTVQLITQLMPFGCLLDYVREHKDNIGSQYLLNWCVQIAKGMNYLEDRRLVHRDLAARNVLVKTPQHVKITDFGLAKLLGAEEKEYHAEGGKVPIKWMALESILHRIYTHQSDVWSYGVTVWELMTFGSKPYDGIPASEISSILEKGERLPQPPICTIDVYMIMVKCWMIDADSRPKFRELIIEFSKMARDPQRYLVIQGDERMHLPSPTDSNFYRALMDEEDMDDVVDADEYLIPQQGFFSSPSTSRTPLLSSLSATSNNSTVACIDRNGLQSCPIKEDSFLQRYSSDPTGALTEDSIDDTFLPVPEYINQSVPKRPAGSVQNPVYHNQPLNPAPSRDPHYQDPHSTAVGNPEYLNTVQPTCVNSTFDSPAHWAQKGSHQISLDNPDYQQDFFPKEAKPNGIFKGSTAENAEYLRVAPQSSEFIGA
T6 sequence (P08581 25-1390): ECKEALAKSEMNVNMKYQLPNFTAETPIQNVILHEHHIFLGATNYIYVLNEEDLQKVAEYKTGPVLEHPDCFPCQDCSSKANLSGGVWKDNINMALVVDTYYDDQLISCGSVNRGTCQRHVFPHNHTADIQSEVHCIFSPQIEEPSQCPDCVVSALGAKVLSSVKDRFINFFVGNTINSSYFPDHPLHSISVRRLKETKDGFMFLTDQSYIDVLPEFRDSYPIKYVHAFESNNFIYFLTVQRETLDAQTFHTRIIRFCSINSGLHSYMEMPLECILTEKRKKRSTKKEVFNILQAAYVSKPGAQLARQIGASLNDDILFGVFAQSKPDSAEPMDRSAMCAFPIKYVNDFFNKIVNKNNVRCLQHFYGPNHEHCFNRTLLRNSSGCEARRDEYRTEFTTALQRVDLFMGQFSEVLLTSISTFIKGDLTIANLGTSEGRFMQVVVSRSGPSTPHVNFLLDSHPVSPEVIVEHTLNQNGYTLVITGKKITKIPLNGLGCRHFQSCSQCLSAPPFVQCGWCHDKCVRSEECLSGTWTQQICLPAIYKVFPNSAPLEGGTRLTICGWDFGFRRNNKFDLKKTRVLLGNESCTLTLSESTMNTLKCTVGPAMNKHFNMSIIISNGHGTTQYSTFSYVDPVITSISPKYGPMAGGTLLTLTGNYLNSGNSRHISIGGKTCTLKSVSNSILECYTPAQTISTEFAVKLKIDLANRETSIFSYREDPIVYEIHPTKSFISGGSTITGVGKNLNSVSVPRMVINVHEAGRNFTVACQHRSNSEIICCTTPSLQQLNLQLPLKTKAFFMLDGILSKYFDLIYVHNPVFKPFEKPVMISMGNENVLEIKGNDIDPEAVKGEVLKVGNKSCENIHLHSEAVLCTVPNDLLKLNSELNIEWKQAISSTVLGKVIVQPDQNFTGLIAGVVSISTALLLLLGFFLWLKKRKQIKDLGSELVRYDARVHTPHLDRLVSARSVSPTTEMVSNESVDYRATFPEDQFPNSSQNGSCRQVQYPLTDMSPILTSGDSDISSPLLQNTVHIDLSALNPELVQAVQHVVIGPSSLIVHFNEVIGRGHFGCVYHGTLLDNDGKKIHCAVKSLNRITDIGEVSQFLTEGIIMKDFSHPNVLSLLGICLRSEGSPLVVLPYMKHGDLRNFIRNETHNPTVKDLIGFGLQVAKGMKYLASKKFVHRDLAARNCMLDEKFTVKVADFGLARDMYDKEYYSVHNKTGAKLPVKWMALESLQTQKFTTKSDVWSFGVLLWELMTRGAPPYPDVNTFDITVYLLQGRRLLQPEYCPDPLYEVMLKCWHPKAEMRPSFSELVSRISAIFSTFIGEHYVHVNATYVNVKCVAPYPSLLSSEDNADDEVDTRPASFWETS
T7 sequence (Q9Y243 whole entry, the tested form may be a part): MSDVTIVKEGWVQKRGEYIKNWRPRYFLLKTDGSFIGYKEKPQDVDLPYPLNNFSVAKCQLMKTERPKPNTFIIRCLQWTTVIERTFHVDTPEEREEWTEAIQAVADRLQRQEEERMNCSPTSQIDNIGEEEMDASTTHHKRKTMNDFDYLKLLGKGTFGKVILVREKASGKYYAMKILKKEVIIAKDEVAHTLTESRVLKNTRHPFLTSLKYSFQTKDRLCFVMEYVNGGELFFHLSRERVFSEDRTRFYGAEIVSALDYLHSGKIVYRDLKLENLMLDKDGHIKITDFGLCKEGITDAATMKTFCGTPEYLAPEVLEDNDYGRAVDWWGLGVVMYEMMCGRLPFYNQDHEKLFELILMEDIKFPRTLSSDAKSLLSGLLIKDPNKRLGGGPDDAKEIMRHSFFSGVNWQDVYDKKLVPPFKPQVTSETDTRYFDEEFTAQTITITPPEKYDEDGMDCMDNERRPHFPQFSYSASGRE
T5 sequence (P35968 20-1356, species assumed): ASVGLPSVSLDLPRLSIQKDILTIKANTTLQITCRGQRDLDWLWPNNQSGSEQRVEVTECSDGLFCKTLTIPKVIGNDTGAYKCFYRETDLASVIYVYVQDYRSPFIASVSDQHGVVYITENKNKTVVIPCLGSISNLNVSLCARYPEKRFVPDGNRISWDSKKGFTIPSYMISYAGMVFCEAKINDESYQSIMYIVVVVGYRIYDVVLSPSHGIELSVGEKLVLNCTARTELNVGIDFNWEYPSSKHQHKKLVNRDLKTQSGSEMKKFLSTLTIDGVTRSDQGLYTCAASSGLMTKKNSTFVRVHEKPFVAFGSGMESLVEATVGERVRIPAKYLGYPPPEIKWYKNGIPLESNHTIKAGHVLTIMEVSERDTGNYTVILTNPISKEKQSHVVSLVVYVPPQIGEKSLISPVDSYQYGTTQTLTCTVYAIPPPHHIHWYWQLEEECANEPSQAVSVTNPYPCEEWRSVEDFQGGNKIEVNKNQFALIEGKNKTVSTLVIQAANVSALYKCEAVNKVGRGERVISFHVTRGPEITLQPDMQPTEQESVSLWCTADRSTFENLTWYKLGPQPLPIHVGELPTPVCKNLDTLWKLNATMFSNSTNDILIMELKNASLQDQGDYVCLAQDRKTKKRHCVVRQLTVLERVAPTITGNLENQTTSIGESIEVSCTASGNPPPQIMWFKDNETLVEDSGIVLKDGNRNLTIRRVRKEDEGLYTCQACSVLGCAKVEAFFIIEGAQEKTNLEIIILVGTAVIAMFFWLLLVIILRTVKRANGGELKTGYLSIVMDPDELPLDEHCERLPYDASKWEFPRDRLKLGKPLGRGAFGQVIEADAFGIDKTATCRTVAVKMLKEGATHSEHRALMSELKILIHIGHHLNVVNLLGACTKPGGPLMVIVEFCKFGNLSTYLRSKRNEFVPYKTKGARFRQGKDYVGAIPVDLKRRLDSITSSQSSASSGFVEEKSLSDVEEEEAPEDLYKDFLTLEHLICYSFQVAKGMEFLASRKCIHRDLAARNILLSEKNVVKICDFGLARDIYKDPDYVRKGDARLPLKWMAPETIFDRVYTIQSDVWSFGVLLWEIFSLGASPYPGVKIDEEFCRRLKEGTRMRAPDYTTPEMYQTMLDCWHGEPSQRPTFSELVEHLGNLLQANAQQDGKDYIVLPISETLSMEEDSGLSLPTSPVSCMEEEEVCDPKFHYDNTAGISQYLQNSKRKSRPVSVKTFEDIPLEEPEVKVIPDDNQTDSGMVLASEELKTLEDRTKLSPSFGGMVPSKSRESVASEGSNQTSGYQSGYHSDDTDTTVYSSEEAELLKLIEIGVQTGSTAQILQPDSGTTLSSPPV

| IC50 (Lck; Table 3) [µM] | IC50 (Zap-70; Table 3) [µM] | IC50 (Itk; Table 3) [µM] | IC50 (EGFR) [µM] | IC50 (Kdr; Table 3) [µM] | IC50 (c-Met) [µM] | IC50 (AKT) [µM] | IC50 (Lck) [µM] | IC50 (Zap-70) [µM] | IC50 (Itk) [µM] | IC50 (Kdr) [µM] | Compound |
| --- | --- | --- | --- | --- | --- | --- | --- | --- | --- | --- | --- |
| 0.972 to 5.83 | > 10.9 | > 10.9 | > 10.9 | > 10.9 | > 10.9 | > 10.9 | – | – | – | – | COc1cc(Nc2ncnc(-c3ccnc(NCCCN)c3)n2)cc(OC)c1OC [Compound 45] |
| – | – | – | > 10.9 | – | > 10.9 | > 10.9 | > 10.9 | > 10.9 | > 10.9 | 0.972 to 5.83 | COc1cc(Nc2ncnc(-c3ccc(NCCCN)nc3)n2)cc(OC)c1OC [Compound 472] |
| – | – | – | > 12.5 | – | 6.66 to 9.71 | > 12.5 | 1.11 to 6.66 | > 12.5 | 1.11 to 6.66 | < 1.11 | CC(=O)Nc1ccc(Nc2ncnc(-n3c(N)nc4ccccc43)n2)cc1 [Compound 475] |
| 12 to 15.4 | > 15.4 | > 15.4 | > 15.4 | > 15.4 | > 15.4 | > 15.4 | – | – | – | – | CNc1ncnc(Nc2cc(OC)c(OC)c(OC)c2)n1 [Compound 409] |
| – | – | – | 1.14 to 6.81 | – | 1.14 to 6.81 | 1.14 to 6.81 | 1.14 to 6.81 | > 12.8 | 1.14 to 6.81 | 1.14 to 6.81 | CC(C)(C)c1cc(Nc2ncnc(Nc3ccc(C(N)=O)cc3)n2)[nH]n1 [Compound 502] |
| > 13 | > 13 | > 13 | > 13 | 1.15 to 6.91 | > 13 | > 13 | – | – | – | – | NC(=O)c1cccc(Nc2ncnc(-n3c(=O)[nH]c4ccccc43)n2)c1 [Compound 420] |
| – | – | – | > 10.3 | – | > 10.3 | > 10.3 | 0.912 to 5.47 | > 10.3 | > 10.3 | > 10.3 | CC(C)(C)OC(=O)NCc1cccc(Nc2ncnc(Nc3cc(C(C)(C)C)n[nH]3)n2)c1 [Compound 987] |
| > 10.4 | > 10.4 | > 10.4 | 5.54 to 8.08 | 0.923 to 5.54 | > 10.4 | > 10.4 | – | – | – | – | O=C(Nc1cccc(Nc2ncnc(-n3c(=O)[nH]c4ccccc43)n2)c1)O[C@@H]1CCOC1 [Compound 455] |
| – | – | – | > 10.9 | – | > 10.9 | > 10.9 | > 10.9 | > 10.9 | > 10.9 | 0.97 to 5.82 | O=c1[nH]c2ccccc2n1-c1ncnc(Nc2cccc(S(=O)(=O)CCO)c2)n1 [Compound 681] |
| – | – | – | > 13.7 | – | > 13.7 | > 13.7 | 1.21 to 7.29 | > 13.7 | > 13.7 | 1.21 to 7.29 | N#Cc1cccc(Nc2ncnc(-n3c(=O)[nH]c4ccccc43)n2)c1 [Compound 486] |
| > 11.8 | > 11.8 | > 11.8 | > 11.8 | > 11.8 | > 11.8 | > 11.8 | – | – | – | – | COc1cc(Nc2ncnc(-c3ccc(N(C)C)nc3)n2)cc(OC)c1OC [Compound 449] |
| – | – | – | > 16.5 | – | > 16.5 | > 16.5 | > 16.5 | 8.8 to 12.8 | > 16.5 | > 16.5 | Clc1ncnc(Nc2cc(-c3ccccc3)n[nH]2)n1 [Compound 976] |
| > 12.6 | > 12.6 | > 12.6 | > 12.6 | 1.12 to 6.73 | 6.73 to 9.81 | > 12.6 | – | – | – | – | O=c1[nH]c2ccccc2n1-c1ncnc(Nc2ccc(F)c(Cl)c2)n1 [Compound 459] |
| – | – | – | > 13.4 | – | > 13.4 | > 13.4 | > 13.4 | > 13.4 | > 13.4 | > 13.4 | COc1ccc(Nc2ncnc(-n3c(=O)[nH]c4ccccc43)n2)cn1 [Compound 489] |
| > 10.6 | > 10.6 | > 10.6 | > 10.6 | > 10.6 | > 10.6 | > 10.6 | – | – | – | – | COc1cc(Nc2ncnc(-c3ccc(N4CCOCC4)nc3)n2)cc(OC)c1OC [Compound 434] |
| – | – | – | > 10.1 | – | > 10.1 | > 10.1 | 5.39 to 7.86 | > 10.1 | > 10.1 | < 0.898 | COc1cc(Nc2ncnc(-c3cccnc3NCc3ccccn3)n2)cc(OC)c1OC [Compound 1080] |
| > 9.97 | > 9.97 | > 9.97 | > 9.97 | > 9.97 | > 9.97 | > 9.97 | – | – | – | – | CC[C@H]1CN(c2ccc(-c3ncnc(Nc4cc(OC)c(OC)c(OC)c4)n3)cn2)CCN1 [Compound 446] |
| 10.3 to 13.3 | > 13.3 | > 13.3 | 7.08 to 10.3 | 1.18 to 7.08 | > 13.3 | > 13.3 | – | – | – | – | O=c1[nH]c2ccccc2n1-c1ncnc(Nc2cccc(Cl)c2)n1 [Compound 457] |
| – | – | – | > 14.7 | – | > 14.7 | > 14.7 | > 14.7 | > 14.7 | > 14.7 | > 14.7 | O=c1[nH]c2ccccc2n1-c1ncnc(Nc2ncccn2)n1 [Compound 490] |
| – | – | – | > 14.8 | – | > 14.8 | > 14.8 | > 14.8 | > 14.8 | > 14.8 | < 1.31 | O=c1[nH]c2ccccc2n1-c1ncnc(Nc2ccccc2)n1 [Compound 482] |
| > 17.6 | > 17.6 | > 17.6 | > 17.6 | 13.7 to 17.6 | > 17.6 | – | – | – | – | – | Fc1ccc(Nc2ncnc(-n3cccc3)n2)cc1 [Compound 284] |
| > 13.6 | > 13.6 | > 13.6 | > 13.6 | > 13.6 | 7.27 to 10.6 | – | – | – | – | – | Cc1cc(Br)ccc1Nc1ncnc(-n2cccc2)n1 [Compound 282] |
| > 14.7 | > 14.7 | > 14.7 | > 14.7 | 1.31 to 7.84 | > 14.7 | – | – | – | – | – | Clc1cc(Cl)cc(Nc2ncnc(-n3cccc3)n2)c1 [Compound 274] |
